# Reference: ChEMBL document CHEMBL5678818, “Discovery of potent SOS1 inhibitors that block RAS activation via disruption of the RAS-SOS1 interaction” (Proc Natl Acad Sci U S A, 2019)
# Tests used:
# [1] = target: T1, Son of sevenless homolog 1 (Homo sapiens, UniProt Q07889); experiment: (§1) Inhibition of N-terminal His10-tagged wild-type recombinant human SOS1 catalytic domain (564 to 1049 residues) expressed in Escherichia coli assessed as reduction in KRAS G12C mutant activation preincubated for 10 mins with KRAS followed by SOS1 addition measured after 30 mins in presence of EDA-GTP-DY-647P1 by HTRF analysis
# [2] = target: T2, Son of sevenless homolog 1 (Homo sapiens, UniProt Q07889); experiment: Inhibition of N-terminal His10-tagged wild-type recombinant human SOS1 catalytic domain (564 to 1049 residues) expressed in Escherichia coli assessed as reduction in wild-type KRAS activation preincubated for 10 mins with KRAS followed by SOS1 addition measured after 30 mins in presence of EDA-GTP-DY-647P1 by HTRF analysis
# T2 sequence (Q07889 whole entry): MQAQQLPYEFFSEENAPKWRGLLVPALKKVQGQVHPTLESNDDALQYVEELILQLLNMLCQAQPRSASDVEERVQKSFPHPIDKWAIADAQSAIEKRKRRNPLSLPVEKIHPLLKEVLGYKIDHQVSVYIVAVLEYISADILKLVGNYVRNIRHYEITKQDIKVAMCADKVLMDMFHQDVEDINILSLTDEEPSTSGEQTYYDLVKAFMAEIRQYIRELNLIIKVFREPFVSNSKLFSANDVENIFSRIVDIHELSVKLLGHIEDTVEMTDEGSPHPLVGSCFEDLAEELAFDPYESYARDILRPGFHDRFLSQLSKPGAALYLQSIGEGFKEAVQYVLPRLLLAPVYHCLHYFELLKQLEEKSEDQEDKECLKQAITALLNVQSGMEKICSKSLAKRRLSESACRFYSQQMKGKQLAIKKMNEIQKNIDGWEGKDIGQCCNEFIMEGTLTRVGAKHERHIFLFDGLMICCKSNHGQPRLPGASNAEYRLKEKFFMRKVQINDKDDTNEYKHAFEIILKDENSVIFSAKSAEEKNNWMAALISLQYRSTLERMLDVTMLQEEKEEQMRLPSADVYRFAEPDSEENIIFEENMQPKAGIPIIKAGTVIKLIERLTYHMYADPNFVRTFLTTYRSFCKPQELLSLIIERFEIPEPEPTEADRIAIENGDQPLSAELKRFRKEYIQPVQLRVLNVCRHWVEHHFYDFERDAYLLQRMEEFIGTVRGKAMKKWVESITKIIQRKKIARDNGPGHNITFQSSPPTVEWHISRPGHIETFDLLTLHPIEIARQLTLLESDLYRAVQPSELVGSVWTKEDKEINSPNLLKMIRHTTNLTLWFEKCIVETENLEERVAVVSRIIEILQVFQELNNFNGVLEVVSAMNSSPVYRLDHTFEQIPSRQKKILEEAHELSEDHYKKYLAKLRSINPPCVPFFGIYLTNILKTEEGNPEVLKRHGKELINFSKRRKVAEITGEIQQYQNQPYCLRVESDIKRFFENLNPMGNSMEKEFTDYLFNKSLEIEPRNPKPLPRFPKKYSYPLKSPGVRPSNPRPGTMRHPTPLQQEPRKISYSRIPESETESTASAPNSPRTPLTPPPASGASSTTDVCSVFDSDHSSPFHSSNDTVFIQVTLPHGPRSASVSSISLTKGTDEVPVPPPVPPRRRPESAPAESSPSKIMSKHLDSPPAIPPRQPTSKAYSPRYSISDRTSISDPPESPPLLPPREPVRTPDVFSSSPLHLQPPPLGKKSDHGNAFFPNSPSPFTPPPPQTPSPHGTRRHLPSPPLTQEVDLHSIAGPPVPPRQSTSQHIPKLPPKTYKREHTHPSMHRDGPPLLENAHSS
# [3] = target: Son of sevenless homolog 2 (Homo sapiens, UniProt Q07890); experiment: as §1, with “SOS2” for “SOS1”, “1043” for “1049”
# GTPase KRas = GTPase KRas (Homo sapiens, UniProt P01116, G12C); experiment: Inhibition of N-terminal GST-tagged recombinant human KRAS G12C mutant (1 to 169 residues) expressed in Escherichia coli assessed as reduction in intrinsic GTP exchange preincubated for 10 mins with KRAS followed by SOS1 addition measured after 30 mins in presence of EDA-GTP-DY-647P1 by HTRF analysis
# [4] = target: T1, Son of sevenless homolog 1; experiment: as §1, with “for 2” for “for 10”, “after 20” for “after 30”
# SOS1-KRAS = SOS1-KRAS (Homo sapiens, UniProt Q07889); experiment: Inhibition of N-terminal GST-tagged recombinant human KRAS G12C mutant (1 to 169 residues) expressed in Escherichia coli/N-terminal His10-tagged wild-type recombinant human SOS1 catalytic domain (564 to 1049 residues) expressed in Escherichia coli protein-protein interaction preincubated for 2 mins with KRAS followed by SOS1 addition measured after 60 mins in presence of anti-6His-XL665 by HTRF analysis
# GTPase KRas/RAF1 = GTPase KRas/RAF1 (Homo sapiens, UniProt P01116+P04049); experiment: Inhibition of N-terminal His10-tagged wild-type recombinant human KRAS (1 to 169 residues) expressed in Escherichia coli/N-terminal GST-tagged recombinant human CRAF RBD (51 to 131 residues) expressed in Escherichia coli protein-protein interaction preincubated for 30 mins with KRAS followed by CRAF RBD addition measured after 60 mins in presence of anti-6His-XL665/GTP by HTRF analysis
# [5] = target: T3, Guanine nucleotide exchange factor DBS (Homo sapiens, UniProt O15068); experiment: Inhibition of human DBS assessed as reduction in CDC42 activation preincubated for 1 min with CDC42 followed by DBS addition measured after 20 mins in presence of EDA-GTP-DY-647P1 by HTRF analysis
# T3 sequence (O15068 whole entry): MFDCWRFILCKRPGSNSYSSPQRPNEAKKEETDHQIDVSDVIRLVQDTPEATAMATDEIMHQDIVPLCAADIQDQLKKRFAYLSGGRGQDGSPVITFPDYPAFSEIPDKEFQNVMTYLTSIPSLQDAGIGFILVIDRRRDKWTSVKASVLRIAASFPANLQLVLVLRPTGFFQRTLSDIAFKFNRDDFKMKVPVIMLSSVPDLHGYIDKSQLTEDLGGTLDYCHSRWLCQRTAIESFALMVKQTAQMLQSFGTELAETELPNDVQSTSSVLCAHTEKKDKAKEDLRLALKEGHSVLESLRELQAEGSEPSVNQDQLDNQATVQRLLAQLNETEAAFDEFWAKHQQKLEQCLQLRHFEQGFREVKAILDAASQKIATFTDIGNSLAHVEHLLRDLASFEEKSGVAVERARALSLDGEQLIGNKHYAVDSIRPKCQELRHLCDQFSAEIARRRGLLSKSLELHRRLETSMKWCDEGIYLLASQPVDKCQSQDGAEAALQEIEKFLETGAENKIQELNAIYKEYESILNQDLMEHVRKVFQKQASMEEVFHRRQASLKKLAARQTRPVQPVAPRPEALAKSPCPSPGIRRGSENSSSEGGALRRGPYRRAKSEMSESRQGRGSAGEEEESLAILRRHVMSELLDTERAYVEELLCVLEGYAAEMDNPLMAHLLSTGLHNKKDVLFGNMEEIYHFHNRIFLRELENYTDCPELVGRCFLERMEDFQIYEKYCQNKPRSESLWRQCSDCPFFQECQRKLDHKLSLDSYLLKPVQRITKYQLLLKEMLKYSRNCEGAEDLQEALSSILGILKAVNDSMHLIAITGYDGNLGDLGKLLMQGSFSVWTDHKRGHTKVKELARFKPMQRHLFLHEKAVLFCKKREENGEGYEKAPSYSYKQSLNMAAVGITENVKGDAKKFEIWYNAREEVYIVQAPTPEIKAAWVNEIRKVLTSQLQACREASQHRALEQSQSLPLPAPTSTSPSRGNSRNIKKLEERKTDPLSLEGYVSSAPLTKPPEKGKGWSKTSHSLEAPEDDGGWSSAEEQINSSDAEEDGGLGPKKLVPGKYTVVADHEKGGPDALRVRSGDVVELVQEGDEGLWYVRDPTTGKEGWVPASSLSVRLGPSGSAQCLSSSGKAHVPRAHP
# [6] = target: Epidermal growth factor receptor (Homo sapiens, UniProt P00533); experiment: Inhibition of human EGFR using biotin-aminohexyl-AEEEEYFELVAKKK as substrate preincubated for 15 mins followed by substrate/ATP addition measured after 20 mins by FRET assay
# [7] = target: T2, Son of sevenless homolog 1; experiment: Inhibition of SOS1 in human Calu-1 cells assessed as reduction in RAS activation pretreated for 30 mins followed by EGF stimulation for 3 mins by G-LISA analysis; format: cell-based
# [8] = target: T2, Son of sevenless homolog 1; experiment: Inhibition of SOS1 in human HeLa cells assessed as reduction in RAS activation pretreated for 30 mins followed by EGF stimulation for 3 mins by G-LISA analysis; format: cell-based
# [9] = target: T2, Son of sevenless homolog 1; experiment: Inhibition of SOS1 in human K562 cells assessed as reduction in pERK level incubated for 60 mins by HTRF analysis; format: cell-based
# [10] = target: T2, Son of sevenless homolog 1; experiment: Inhibition of SOS1 in human Calu-1 cells assessed as reduction in pERK level incubated for 24 hrs by HTRF analysis; format: cell-based
# [11] = target: T2, Son of sevenless homolog 1; experiment: Inhibition of SOS1 in human MOLM-13 cells assessed as reduction in pERK level incubated for 60 mins by HTRF analysis; format: cell-based
# Calu-1 = experiment: Antiproliferative activity against human Calu-1 cells assessed as inhibition of cell viability incubated for 72 hrs by Cell Titer Glo assay; format: functional, cell-based; conditions: Calu-1, 72 h
smiles,measurement,setting,value
COc1cc2nc(C)nc(NC(C)c3ccc(-c4cnc5n4CCC5)s3)c2cc1OC (stereo not given),IC50,[1],930 nM
same,IC50,[2],550 nM
same,IC50,[3],> 20 µM
same,IC50,GTPase KRas,> 20 µM
same,IC50,[4],650 nM
same,IC50,SOS1-KRAS,400 nM
same,IC50,GTPase KRas/RAF1,> 20 µM
same,IC50,[5],> 20 µM
same,IC50,[6],> 20 µM
same,IC50,[7],2000 nM
same,IC50,[8],5.34 µM
same,IC50,[9],1160 nM
same,IC50,[10],4.46 µM
same,IC50,[11],450 nM
same,IC50,Calu-1,870 nM
